One data set concerns WT mice on HFD. Description: Liver TRIG accumulation / hepatic steatosis in response to HFD. Type of data set: in vivo. Particulars: for hepatic steatosis: WT mice on HFD. How it is done: (§1) Histology. WAT, BAT and liver were isolated and fixed in 4% paraformaldehyde (PFA) and processed for H&E staining. For oil red O staining, liver tissues were fixed in 4% PFA overnight, incubated in 12% sucrose for 12 hours then in 18% sucrose overnight before being cryoembedded and sectioned by the UT Southwestern Histology Core Facility. For skeletal muscle fiber analysis, tissues were frozen in liquid-nitrogen precooled isopentane, and 8 μm sections were used for H&E and fiber type staining. Plasma and tissue chemistry. Blood was collected using a 1 ml syringe coated in 0.5 M K2EDTA and serum collected by centrifugation for 20 min at 1000×g. Insulin and leptin levels were measured by ELISA. Serum triglycerides levels were measured using the Ortho Vitros 250 chemistry system. To measure triglyceride in the liver and skeletal muscle, tissue specimens were frozen immediately after isolation and pulverized in liquid nitrogen with a cell crusher. Serum and tissue triglyceride levels were measured by Mouse Metabolic Phenotyping Core Facility at University of Texas Southwestern Medical Center.

For data set [1] the following is noted: mouse, in vivo.
Data set [2] concerns chloroquine-resistant Plasmodium falciparum. Conditions: chloroquine-resistant Plasmodium falciparum malaria infections; cited from earlier work.
In the next data set the target is Nurr1 (Homo sapiens, UniProt P43354). Conditions: cited from earlier work.
For data set [3], the system named is ob/ob mice. Put plainly: Liver TRIG accumulation in ob/ob mice. Type of data set: in vivo. As to the method: as §1
Data set [4] is described as follows: Metabolic cages (energy expenditure). Type of data set: in vivo. Conditions: WT-HFD-AQ compared to WT mice, normalized to lean mass.
The subject of data set [5] is ob/ob mice. Put plainly: AQ treatment of leptin deficient (ob/ob) mice: body weight, food intake. Type of data set: in vivo. As to the method:
Animals. Animals were housed in a pathogen free barrier facility with a 12 hour light/dark cycle and maintained on standard chow (2916 Teklad Global). The Nurr1 transcript was amplified from Invitrogen library with Nurr1-specific primers. Nurr1 was cloned into a plasmid containing the human skeletal muscle actin promoter and human GH (hGH) poly(A) signal. Nurr1 transgenic mice (referred as Nurr1-mTg) were backcrossed with C57/BL6J mice for more than four generations. C57BL/6J, ob/ob and db/db mice were obtained from Jackson Laboratories. Male mice were used in all experiments. For HFD (60% fat calories; D12492, Research Diet), mice were fed from the age of 5 weeks to the indicated times. Tissues were taken in the fed state except when otherwise mentioned. Drug treatments. […] Isoxazolo-pyridinone 7e (IP7e) was purchased from Millipore and dissolved in Tween 80 in a 10× stock solution. To obtain the final concentration (1×; 10 mg/kg) IP7e was dissolved in saline solution (0.9% NaCl). IP7e treatment by gavage was performed once a day. Control animals received the Tween 80 dissolved saline solution (0.9% NaCl, vehicle).

Data set [6] relates to WT mice on normal chow and HFD. Put plainly: Nurr1 agonist treatment of WT mice on normal chow and HFD: weight gain, food intake, body composition, adipose histology. Type of data set: in vivo. Particulars: for weight gain: WT mice on normal chow. As to the method: Animals. Animals were housed in a pathogen free barrier facility with a 12 hour light/dark cycle and maintained on standard chow (2916 Teklad Global). The Nurr1 transcript was amplified from Invitrogen library with Nurr1-specific primers. Nurr1 was cloned into a plasmid containing the human skeletal muscle actin promoter and human GH (hGH) poly(A) signal. Nurr1 transgenic mice (referred as Nurr1-mTg) were backcrossed with C57/BL6J mice for more than four generations. C57BL/6J, ob/ob and db/db mice were obtained from Jackson Laboratories. Male mice were used in all experiments. For HFD (60% fat calories; D12492, Research Diet), mice were fed from the age of 5 weeks to the indicated times. Tissues were taken in the fed state except when otherwise mentioned. Drug treatments. […] Isoxazolo-pyridinone 7e (IP7e) was purchased from Millipore and dissolved in Tween 80 in a 10× stock solution. To obtain the final concentration (1×; 10 mg/kg) IP7e was dissolved in saline solution (0.9% NaCl). IP7e treatment by gavage was performed once a day. Control animals received the Tween 80 dissolved saline solution (0.9% NaCl, vehicle). Histology. WAT, BAT and liver were isolated and fixed in 4% paraformaldehyde (PFA) and processed for H&E staining. For oil red O staining, liver tissues were fixed in 4% PFA overnight, incubated in 12% sucrose for 12 hours then in 18% sucrose overnight before being cryoembedded and sectioned by the UT Southwestern Histology Core Facility. For skeletal muscle fiber analysis, tissues were frozen in liquid-nitrogen precooled isopentane, and 8 μm sections were used for H&E and fiber type staining. Metabolic chambers and whole-body composition analysis. Metabolic phenotyping of WT and Nurr1-mTg mice on HFD was performed using TSE metabolic chamber analysis by the Mouse Metabolic Phenotyping Core Facility at University of Texas Southwestern Medical Center. Thirteen week old mice on HFD were placed in TSE metabolic chambers for an initial 5 days acclimation period, followed by a 4.5 days experimental period with data collection. Whole-body composition parameters were measured by magnetic resonance imaging (MRI) using a Bruker Minispec mq10 system.

Another data set has as its system mice on HFD. Description: Glucose tolerance test and insulin tolerance test. Type of data set: in vivo. As to the method:
Glucose uptake and insulin tolerance. Glucose tolerance test and insulin tolerance test were performed as previously described. For glucose tolerance test, mice were fasted for 6 hr and injected intraperitoneally with a glucose solution (0.15 g/ml, 158968 from Sigma-Aldrich, St. Louis, Mo.) at 1.5 g/kg body weight. Blood glucose concentrations were measured before and 15, 30, 60 and 90 min after glucose injection. For insulin tolerance test, mice […] for 6 hours were injected intraperitoneally with insulin (Human insulin 19278 from Sigma-Aldrich, St. Louis, Mo.) at 1.0 U/kg body weight. Blood glucose concentrations were measured before and 15, 30, 60 and 90 min after insulin injection.

Data set [7] in a line: Serum insulin and triglyceride levels. Type of data set: in vivo. Particulars: WT-HFD-AQ vs WT-HFD mice, after 10 weeks on HFD, postprandial. As to the method:
Plasma and tissue chemistry. Blood was collected using a 1 ml syringe coated in 0.5 M K2EDTA and serum collected by centrifugation for 20 min at 1000×g. Insulin and leptin levels were measured by ELISA. Serum triglycerides levels were measured using the Ortho Vitros 250 chemistry system. To measure triglyceride in the liver and skeletal muscle, tissue specimens were frozen immediately after isolation and pulverized in liquid nitrogen with a cell crusher. Serum and tissue triglyceride levels were measured by Mouse Metabolic Phenotyping Core Facility at University of Texas Southwestern Medical Center.

Another data set relates to NF-κB. Conditions: NF-κB-GFP reporter cells; cited from earlier work.
The test system of data set [8] is dopaminergic neurons in the substantia nigra pars compacta. Particulars: MPTPp-treated mice, cited from earlier work.
For a further data set, the system named is BV-2 microglia. Particulars: cited from earlier work.
The conditions of data set [9]: cited from earlier work.
Setting [10] is: ob/ob mice on normal chow, AQ in drinking water, 4 weeks.
Where [11] appears, read: WT-HFD-AQ compared to WT-HFD mice.

Entries after “also recorded” stand apart in the source; their conditions may differ.

Sequence of Nurr1 (P43354 whole entry): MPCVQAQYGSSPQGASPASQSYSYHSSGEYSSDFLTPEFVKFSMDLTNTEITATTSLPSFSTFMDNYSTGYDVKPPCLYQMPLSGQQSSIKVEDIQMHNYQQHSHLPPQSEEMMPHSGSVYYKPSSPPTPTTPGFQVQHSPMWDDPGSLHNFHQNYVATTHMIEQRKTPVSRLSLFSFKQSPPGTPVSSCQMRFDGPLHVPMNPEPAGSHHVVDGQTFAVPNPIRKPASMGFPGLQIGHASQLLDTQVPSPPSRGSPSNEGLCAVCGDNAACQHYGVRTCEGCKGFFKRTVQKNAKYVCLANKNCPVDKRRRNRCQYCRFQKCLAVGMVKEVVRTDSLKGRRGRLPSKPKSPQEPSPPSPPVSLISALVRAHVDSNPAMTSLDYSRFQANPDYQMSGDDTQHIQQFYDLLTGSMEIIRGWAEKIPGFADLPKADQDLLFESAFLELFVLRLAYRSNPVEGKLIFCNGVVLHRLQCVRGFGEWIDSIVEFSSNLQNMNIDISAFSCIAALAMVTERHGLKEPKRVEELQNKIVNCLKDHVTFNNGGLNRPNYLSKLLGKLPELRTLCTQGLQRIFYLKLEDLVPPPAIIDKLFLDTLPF

For `CCN(CC)Cc1cc(Nc2ccnc3cc(Cl)ccc23)ccc1O` [AQ, amodiaquine], the hepatic steatosis entry in the data set with WT mice on HFD (AQ) is “resistant to the hepatic steatosis; also recorded: prevents hepatic steatosis”. For the same compound, the “decrease in hepatic TRIG levels” value with WT mice on HFD (WT-HFD-AQ mice vs WT on HFD) is given as 50%. Moreover, the toxic effects entry in data set [1] is given as “no toxic effects”. Moreover, in data set [2], the “efficacy compared with chloroquine” value is listed as “more effective than chloroquine”. In addition, the Nurr1 activation levels entry on Nurr1 (among three compounds sharing a 4-amino-7-chloroquinoline scaffold) is “highest activation levels”. For the same compound, the “decrease in Tg levels (liver)” value in the data set on ob/ob mice [3] (ob/ob mice treated with AQ compared to non treated mice, 4 weeks) turned out to be 66%. Moreover, in the data set on ob/ob mice [3] (ob/ob mice treated with AQ, histological and biochemical analysis), the “liver TRIG accumulation / hepatic steatosis” value was “significant decrease; also recorded: recovers hepatic steatosis ob/ob mice to normal levels”. Further, in [4], the CO2 production entry is “significant increase” and the O2 consumption entry was “significant increase”. In the data set on ob/ob mice [5] (setting [10]), the body weight entry was “lose weight” and the weight gain result is reported as “resistant to weight gain”. Further, in the data set on ob/ob mice [5] (ob/ob mice, AQ 4 weeks), the “food intake (chow consumed)” value is “comparable quantities; also recorded: does not affect”. In addition, the “obesity on HFD” value in [6] (WT mice on HFD, AQ in drinking water ad libitum, 10 weeks) is recorded as “completely prevented obesity; also recorded: confers resistance to obesity”. In [6] (WT mice on HFD, AQ in drinking water, 10 weeks), the body weights entry was “comparable to mice on normal chow”. In data set [6] (WT mice on HFD, AQ vs control mice on HFD), the “food consumption / food intake” value is on record as “no difference; also recorded: does not affect”. Moreover, in data set [6] (AQ in drinking water ad libitum, 10 weeks), the weight gain result is “no effect”. Moreover, in data set [6] (setting [11]), the “adipocyte size in white adipose tissue” value is “decreases”, the fat mass entry is “significant decrease; also recorded: decreases” and the lean mass composition entry is reported as “increase”. In addition, in the data set with mice on HFD (AQ), the glucose tolerance entry is reported as “dramatic improvement” and the insulin tolerance entry is listed as “dramatic improvement”. Further, in [7], the serum insulin levels entry is recorded as “significantly lower” and the serum triglyceride levels entry is recorded as “significantly lower”.
As to `Clc1ccc(C(c2c[nH]c3ccccc23)c2c[nH]c3ccccc23)cc1` [C-DIM12, 1,1-bis(3′-indolyl)-1-(p-chlorophenyl) methane], the NF-κB activation entry in the data set on NF-κB is listed as “decreased”. In addition, the neuroprotective activity entry in [8] (daily oral gavage) is “greatest neuroprotective activity”. Further, the “suppressing activation of microglia and astrocytes” value in data set [8] is “most potent compound”. The “LPS-induced expression of NF-κB-regulated genes (NOS2, IL-6, CCL2)” value with BV-2 microglia was “inhibited”.
In the case of `COCCOCc1ccc(-c2cc3onc(-c4ccccc4)c3c(=O)n2C)cc1` [IP7e, Isoxazolo-pyridinone 7e], the hepatic steatosis entry in the data set with WT mice on HFD (IP7e) is “resistant to the hepatic steatosis; also recorded: prevents hepatic steatosis”. Further, in the data set on WT mice on HFD (WT-HFD-IP7e mice), the “decrease in hepatic TRIG levels” value came out at 48%. Moreover, the Nurr1-dependent transcriptional activity result on Nurr1 was “potent activator”. The “obesity on HFD” value in data set [6] (WT mice on HFD, IP7e 10 mg/kg oral gavage once a day, 5 weeks) was “prevented obesity; also recorded: confers resistance to obesity”. The “food consumption / food intake” value in data set [6] (WT mice on HFD, IP7e vs control mice on HFD) is reported as “no difference”; in [6] (WT mice on HFD, IP7e vs control mice on HFD, listed as IP7) it was “does not affect”. In addition, in [6] (IP7e 10 mg/kg oral gavage once a day, 5 weeks), the weight gain result is “no impact”. In addition, the “glucose handling (glucose tolerance)” value with mice on HFD (IP7e) is “improvement”.
On to `CCN(CCO)CCCC(C)Nc1ccnc2cc(Cl)ccc12` (stereo not shown) [hydroxy-chloroquine], for which the glucose level result in [9] (high doses, individuals with type 2 diabetes without autoimmune conditions, two clinical trials) is listed as “lowers glucose level”. Moreover, the “risk of developing diabetes” value in [9] (patients with autoimmune inflammatory arthritis, three clinical observational studies) was “lower risk”.

The record behind these values is US11166949B2, “NURR1 activation in the treatment of metabolic disorders and as an exercise mimetic” (The Board of Regents of the University of Texas System, priority 2016, dated 2021).
